By solubility is commonly meant how much of the substance goes into solution per volume.

In brackets after ≈: the same amount, converted by molar mass.

Data set [1] in a line: Solubility test (Japanese Pharmacopoeia Solution 2). Format: physicochemical. The settings on record: pH 6.8, aqueous buffer, thermodynamic from solid; Japanese Pharmacopoeia Solution 2, 37° C., shaken 30 min; read-out: solubility after 30 min. The protocol: An adequate amount of a sample was taken, and a test solution (The Japanese Pharmacopoeia Solution 2) was added to each to a concentration of about 1 mg/ml. The sample was dispersed by ultrasonication for 2 min, shaken at 37° C. for 30 min, and the solution was filtered through DISMIC13HP ([…]). The filtrate in the early stage (3 ml) was removed, the subsequent filtrate (500 μl) was precisely measured, and the dilution solution (water/acetonitrile/trifluoroacetic acid mixture=500:500:1, 500 μl) was accurately added to give a sample solution. The sample solution and the standard solution prepared in Experimental Example 5 were subjected to the measurement under the similar HPLC conditions as in Experimental Example 5.

Data set [2] can be described thus: Dissolution test (JP Dissolution Test Method 2, paddle method). The format is physicochemical. The settings on record: JP second fluid 900 ml, paddle 50 rpm, 37° C., about 10 mg based on free form. The protocol: The compounds obtained in Examples 22, 24 and 25, free base•Form-I crystal, and the racemate of the compound of Example 3 were subjected to a dissolution test, and the dissolution rate was compared. According to this test method, the amount of dissolution relative to the content of each compound in the test solution is expressed in the dissolution rate (%), which was measured over time.
For the method of adding each compound, the compound (about 10 mg based on free form) was precisely weighed and directly added to a vessel. As the test solution, The Japanese Pharmacopoeia second fluid (900 ml) was used, and the test was performed according to The Japanese Pharmacopoeia Dissolution Test Method 2 (Paddle Method) at 50 rpm. The test temperature was 37° C. After the start of the test, solution for dissolution (10 ml) was taken at suitable times, and a test solution (10 ml) heated to 37° C. was soon carefully added for compensation. The collected solution for dissolution was passed through a filter (DISMIC 13HP PTFE (0.45 μm); Toyo Roshi Kaisha). The filtrate in the early stage (5 ml) was removed, the subsequent filtrate (500 μl) was precisely measured, and the dilution solution (water/acetonitrile/trifluoroacetic acid mixture=500:500:1, 500 μl) was accurately added to give a sample solution.
Separately, about 10 mg of the free base•Form-I crystal was precisely weighed, and a dilution solution (water/acetonitrile/trifluoroacetic acid mixture=500:500:1) was added to 50 ml sharp. This solution (2.5 ml) was precisely measured, and a dilution solution (water/acetonitrile/trifluoroacetic acid mixture=500:500:1) was added to 50 ml sharp. This was used as the standard solution of free base•Form-I crystal (10 μg/ml). The sample solution and the standard solution were measured under the HPLC conditions shown below, the peak areas AT and AS of the free base•Form-I crystal in each solution were measured, and the dissolution rate was determined by the following formula.
The nth dissolution rate (%) of free base•Form-I crystal=Wn/W100%×100 • W1: the first dissolution amount (mg) of free base•Form-I crystal
=(900×AT1)×WS/AS/1000 • Wn: the nth (n>1) dissolution amount (mg) of free base•Form-I crystal
={900×ATn+10×(AT1+AT2 . . . +ATn−1)}×WS/AS/1000 • W100%: cast amount (mg) of drug substance • Ws: collected amount (mg) of free base•Form-I crystal standard product • As: peak area of free base•Form-I crystal in standard solution • AT1: peak area of free base•Form-I crystal in sample solution by the first sampling • ATn: peak area of free base•Form-I crystal in sample solution by the nth sampling. • For racemate, the dissolution rate was calculated based on the total value of S form and R form. […]

Turning to `CCn1cc(CN(C(=O)C2CCCc3c(O)cccc32)c2ccc(C(C)C)nc2)cn1` (racemic) [racemate of the compound of Example 3, N-[(1-ethyl-1H-pyrazol-4-yl)methyl]-5-hydroxy-N-(6-isopropylpyridin-3-yl)-1,2,3,4-tetrahydronaphthalene-1-carboxamide, reference compound], the solubility at 30 min in data set [1] is 31 µg/mL (≈ 74.1 µM). Also, the “dissolution rate (comparison)” value in data set [2] is listed as “slowest”.
